Laboratory results as given in patent publication US20230077104A1, “L-SEPIAPTERIN AND METHODS OF USE FOR TREATING DISEASES AND DISORDERS” (THE UNITED STATES GOVERNMENT AS REPRESENTED BY THE …, priority 2020, published 2023).

Key:
p38α = p38α (Homo sapiens, UniProt Q16539); settings: cited from earlier work
HRGECs / neutrophils [1] = test: Neutrophil migration to conditioned media of SLE serum-treated HRGECs, by dose of the patients' medication; format: cell-based, human; settings: serum of SLE patients on differing doses
Experimental: HRGECs were plated at 4×10^4 cells per well of a 48-well fibronectin-coated plate in complete growth media at 37° C. with 5% CO2. On confluence, cells were washed three times in ECM. Cells were then cultured with 10% serum (SLE or control) in ECM for 3 hours and then washed three times in ECM. Cells were serum starved overnight in ECM. The resulting conditioned media (CM) was then collected and passed through a 0.2 μm pore membrane to remove any cellular debris and frozen at −80° C. for later use.
Transwell membrane chambers with 3 μm pores from a 96-well Migration Plate (Corning, Corning, N.Y., USA) were equilibrated in RPMI for 1 hour at 37° C. Then RPMI was removed. CM or negative (CM from serum-free treatment)/positive (10^−7 M interleukin (IL)-8 (R&D Systems, Minneapolis, Minn., USA)) controls were added to the 96-well black-walled receiver wells (Corning); 1.5×10^5 neutrophils in ECM were then added to the upper chamber of each insert and incubated for 1 hour to allow for neutrophil migration toward the conditioned medium. Cells that migrated through the membrane into the CM were then labelled with Calcein AM and incubated for 1 hour at 37° C. as described above. Fluorescence intensity was then measured from the bottom of the plate at 485 nm excitation, 520 nm emission using a fluorescence microplate reader (Biotek HT Synergy). A standard curve of Calcein AM-labelled neutrophils (using 1.5×10^5, 1.0×10^5, 5.0×10^4, 2.5×10^4, 1.25×10^4, 0.625×10^4 and 0 neutrophils) was created and fluorescence intensity was quantified on the microplate reader. The linear equation was then calculated and fluorescence intensity of samples could then be input into the linear equation to determine neutrophil cell number. The fluorescence intensity of migrated neutrophils in the lower chamber was measured as described (Jones Buie et al., Lupus Sci Med 2019; 6:e000294). All values were normalized to untreated controls.

HRGECs / neutrophils [2] = test: Neutrophil adhesion to SLE serum-treated HRGECs, by dose of the patients' medication; format: cell-based, human; settings: serum of SLE patients on differing doses
Experimental: HRGECs were cultured in 48 well fibronectin-coated plates at 80 000 cells per well in complete growth media until confluent. HRGECs were washed, serum starved for 1 hour in ECM supplemented with 0.5% FBS, washed again. Treatments consisting of ECM only, 2.5% serum (lupus or control) in ECM or 100 ng/mL TNF-alpha (Thermo Fisher Scientific) (positive control) in ECM were added to the HRGECs, and cells underwent incubation for 3 hours at 37° C. HRGECs were then washed three times with RPMI-1640 (without phenol red); 6×10^5 Calcein AM-labelled neutrophils were added to each well of the treated HRGECs. Cells were incubated for 20 min at 37° C. and washed five times with PBS (without Ca^2+/Mg^2+). Fluorescence intensity was quantified before the first wash and after the fifth wash to determine percent cell adherence, with all values then normalized to untreated controls. Fluorescence intensity was measured from the top of the plate at 485 nm excitation, 520 nm emission using a fluorescence microplate reader (Biotek HT Synergy).

p38α and p38β2 = settings: cited from earlier work
iNOS = iNOS (Mus musculus, UniProt P29477); settings: cited from earlier work
[3] = test system: human umbilical vein endothelial cells (HUVECs); test: Measurement of nitric oxide production (DAF-FM fluorescence, flow cytometry) in serum-cultured HUVECs; format: cell-based; settings: for DAF-FM MFI, a marker of NO production: L-sep 5 μM 6 hours
Experimental: Primary human umbilical vein endothelial cells from pooled donors were purchased from Lonza (Walkersville, Md., USA) and cultured according to the manufacturer's instructions in 5% CO2 at 37° C. in humidified air. Cells were cultured in endothelial cell basal medium-2 (EBM-2) supplemented with EBM-2 SingleQuot (Lonza), pH 7.6-8.0. Media was changed every other day until cells were 70%-80% confluent. HUVECs were sub-cultured using TryPLE Express, pH 8.0 (ThermoFisher Scientific, Waltham, Mass., USA). Cell growth was limited to 12 population doublings, and all experiments were carried out using cells between passages 3-5. For serum experiments, cells were cultured with 20%-50% serum for 6 or 24 hours prior to further analysis.
For real-time detection of NO production in HUVECs, 1.2×10^5 cells were seeded in a 12-well tissue culture plate. Following adherence, cells were serum starved for 6 hours in endothelial basal media (EBM) containing 0.2% fetal bovine serum (FBS). Cells were stimulated with either 50% healthy or SLE sera±L-sep (5 μM; 6 hours), the eNOS-specific inhibitor, Nω-Nitro-L-arginine (L-NNA, 10 μM; 30 min pre-incubation (Tocris; Bristol, UK)) or the NO donor 3,3′-diamino-4′-methoxyflavone (DD1, 10 μM, Tocris). Following stimulation, cells were washed twice with phosphate buffered saline (PBS) and loaded with 1 μM DAF-FM diacetate (4-amino-5-methylamino-2′,7′-difluorofluorescein diacetate, 1 μM) (ThermoFisher Scientific) in phenol red-free EBM for 30-45 min. […] A population of 2000-10 000 cells were gated to remove doublets and controls and analyzed based on their fluorescence intensities using a FACS Calibur flow cytometer (Becton Dickenson, San Diego, USA). The mean fluorescence intensity (MFI) was normalized to respective populations in unstimulated cells. In order to discriminate between NO and other gaseous molecules previously shown to augment DAF-FM fluorescence, a urate assay was performed to optimize the assay (data not shown).

HUVECs / neutrophils = test: Neutrophil adhesion assay on HUVECs; format: cell-based, human
Experimental: HUVECs were plated at 5.0×10^4 cells/mL in a 24-well plate (Costar) and allowed to adhere overnight. HUVECs were serum starved for 3 hours in phenol-red free 0.2% FBS EBM media (Lonza) prior to activation with 10% sera for 4 hours. Tumor necrosis factor-α (100 ng/mL) was used as the positive control. Neutrophils isolated from healthy human blood as outlined previously were labelled with Calcein AM (Life Technologies) at 5×10^5 cells/mL. Neutrophils were washed gently four times in warm serum-free EBM culture media prior to co-culturing with HUVECs for 60 min after which non-adherent cells were removed by repeated gentle washing (four times) with EBM culture media. Fluorescence intensity was measured at 520 nM with a FLUOStar Omega microplate reader (Cary, N.C., USA), and images were captured using confocal microscopy. Data are reported as ratios of the number of neutrophils to the number of endothelial cells as averages from three different visual fields.

[4] = test system: human renal glomerular endothelial cells (HRGEC); test: NO production (DAF-FM with urate) by HRGEC treated with LN serum; format: cell-based; settings: urate added, 5 μM L-Sepiapterin, 25 μM VAS2870
Experimental: The inflammatory phenotype of HUVECs differs from microvascular endothelial cells and may not reflect mechanisms in glomerular endothelial cells. To confirm the uncoupling effects lead to functional changes in uncoupling and NO production by EC treated with LN serum in HRGEC, HRGEC as in FIG. 10 was treated with LN serum in a black walled 96-well plate. […] NO production was quantified using DAF-FM fluorescence with urate added to prevent ONOO— fluorescence. […] While not wishing to be bound to any particular theory, one possible explanation for this finding is that uncoupled NOS is a significant source of ROS in LN (Njoku, C. J. et al., 2005, J. Investig. Med., 53:347-52).
HRGECs are plated at 3×10^4 cells per well in a 96-well black-walled plate and cultured in complete growth media at 37° C. in a humidified atmosphere with 5% CO2. Upon confluence, complete growth medium is removed, and cells washed in ECM-prf (phenol red free). Cells are incubated with 2 μM DAF-FM Diacetate for 60 minutes at 37° C., then cells washed in ECM-prf. […] 0.6 mM DPTA NONOate (Abcam) is a positive control, while L-NAME (100 μM) is a negative control. […] Plates are incubated for 30 minutes at 37° C. and read at 485/528 excitation/emission on a microplate reader (BioTek HT Synergy). […]

[5] = test system: BALB/c mice with Angiotensin II minipumps; test: Systolic blood pressure in Angiotensin II minipump hypertension; format: in vivo
Experimental: Hypertension was created in some BALB/c mice with Angiotensin II minipumps. Mice were treated half with CSNA-001 (L-sep) 8 days after the pumps were placed and baseline SBP checked. The decrease in systolic BP was significant in the treated mice but not the untreated (FIG. 21 and FIG. 22).

[6] = test system: C57B6/J mice with angiotensin II minipump; test: Tail cuff blood pressure response to acetylcholine, angiotensin II model of hypertension; format: in vivo; settings: 10 mg/kg/d by gavage vs vehicle
Experimental: To determine the effect of sepiapterin in a mouse model of hypertension, C57B6/J mice were implanted with an angiotensin II minipump for 2 weeks to induce hypertension. The animals were then treated with either sepiapterin 10 mg/kg/d by gavage or vehicle. A tail cuff measure of blood pressure was taken followed by injection of acetylcholine and a second tail cuff measure of blood pressure.

intracellular BH4 = settings: compared with exogenous BH4 (Crabtree 2011); cited from earlier work
[7] = test system: humans with phenylketonuria and tetrahydrobiopterin deficiencies; settings: humans with phenylketonuria and tetrahydrobiopterin deficiencies (Smith 2019); cited from earlier work
TLR 7/9 = settings: cited from earlier work

Chain of p38α (Q16539 whole entry): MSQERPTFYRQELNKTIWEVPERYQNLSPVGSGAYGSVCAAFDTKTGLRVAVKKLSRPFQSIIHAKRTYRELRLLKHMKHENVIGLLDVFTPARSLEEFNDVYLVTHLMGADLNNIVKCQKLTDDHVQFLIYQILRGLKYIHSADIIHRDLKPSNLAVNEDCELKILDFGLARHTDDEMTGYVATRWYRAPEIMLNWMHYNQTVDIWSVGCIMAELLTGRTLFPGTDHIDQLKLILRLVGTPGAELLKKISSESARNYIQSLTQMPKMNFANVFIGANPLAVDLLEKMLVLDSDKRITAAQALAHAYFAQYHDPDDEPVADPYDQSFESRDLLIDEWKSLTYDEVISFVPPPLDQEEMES
Chain of iNOS (P29477 whole entry): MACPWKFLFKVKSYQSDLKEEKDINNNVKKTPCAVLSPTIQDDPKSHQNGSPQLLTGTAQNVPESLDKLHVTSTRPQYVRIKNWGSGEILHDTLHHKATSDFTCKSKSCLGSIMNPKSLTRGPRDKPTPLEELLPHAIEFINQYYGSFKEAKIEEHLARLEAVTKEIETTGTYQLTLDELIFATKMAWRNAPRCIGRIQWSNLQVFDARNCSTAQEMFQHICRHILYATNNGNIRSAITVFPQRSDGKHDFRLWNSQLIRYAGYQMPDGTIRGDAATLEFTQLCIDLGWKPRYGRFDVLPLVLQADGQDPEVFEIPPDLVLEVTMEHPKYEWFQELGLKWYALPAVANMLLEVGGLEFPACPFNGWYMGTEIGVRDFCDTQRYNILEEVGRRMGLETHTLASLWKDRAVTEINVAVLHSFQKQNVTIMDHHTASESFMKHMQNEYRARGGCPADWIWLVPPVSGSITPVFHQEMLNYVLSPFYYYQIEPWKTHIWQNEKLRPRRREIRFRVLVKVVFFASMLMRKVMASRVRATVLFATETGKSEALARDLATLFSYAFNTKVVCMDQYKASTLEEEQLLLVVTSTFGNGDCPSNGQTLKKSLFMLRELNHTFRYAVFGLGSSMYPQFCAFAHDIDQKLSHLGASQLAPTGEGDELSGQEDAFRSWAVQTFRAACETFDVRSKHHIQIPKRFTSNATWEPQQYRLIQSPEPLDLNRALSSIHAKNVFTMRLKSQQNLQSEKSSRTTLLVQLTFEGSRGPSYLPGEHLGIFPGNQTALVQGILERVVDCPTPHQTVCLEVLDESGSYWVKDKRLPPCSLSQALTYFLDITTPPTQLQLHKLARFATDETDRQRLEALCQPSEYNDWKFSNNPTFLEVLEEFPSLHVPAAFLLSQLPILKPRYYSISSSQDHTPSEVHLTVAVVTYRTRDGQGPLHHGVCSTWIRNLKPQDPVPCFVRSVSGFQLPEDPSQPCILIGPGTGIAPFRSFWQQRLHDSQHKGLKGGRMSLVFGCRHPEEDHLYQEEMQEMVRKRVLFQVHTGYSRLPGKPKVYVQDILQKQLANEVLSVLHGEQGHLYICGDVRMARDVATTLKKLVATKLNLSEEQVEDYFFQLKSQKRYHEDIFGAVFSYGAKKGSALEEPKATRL

Cc1c(F)cc(C(=O)NC2CC2)cc1-c1c(F)cn2c(C(C)(C)C)nnc2c1F [AL 8697]
IC50 (p38α): 0.006 µM

COc1c(C)c2c(c(O)c1C/C=C(\C)CCC(=O)OCCN1CCOCC1)C(=O)OC2 [CellCept, mycophenolate mofetil]
neutrophil migration, dosing effects of medication (HRGECs / neutrophils [1]): No difference
neutrophil adhesion, dosing effects of medication (HRGECs / neutrophils [2]): No difference

Cc1ccccc1C(=O)c1ccc(Nc2ccc(Br)cc2N)cc1Cl [EO1428]
IC50 (p38α and p38β2): 0.074 µM

CC(=N)NCCCC[C@H](N)C(=O)O [L-NIL]
IC50 (iNOS): 3.3 µM

CC(O)C(=O)C1=Nc2c([nH]c(N)nc2=O)NC1 [L-sepiapterin, 2-amino-6-[-2-hydroxypropanoyl]-7,8-dihydro-1H-pteridin-4-one]
DAF-FM MFI, a marker of NO production ([3]; SLE serum cultured HUVECs, 50% serum, vs SLE cultured cells without L-sepiapterin, p<0.01): significantly increased
DAF-FM MFI, a marker of NO production ([3]; control serum cultured HUVECs): not observed
ratio in MFI-fold change between SLE serum+L-sepiapterin and SLE serum ([3]; vs ratios in control and healthy serum culture conditions, p<0.001 and <0.01): significantly different
neutrophil adhesion induced by SLE serum (HUVECs / neutrophils; SLE serum cultured HUVECs): did not reverse neutrophil adhesion
neutrophil adhesion (HUVECs / neutrophils; cells cultured in EBM-2 media, p<0.05): reversed neutrophil adhesion
NO production (DAF-FM fluorescence) [4]: increased more
decrease in systolic BP ([5]; treated mice, 20 mg/kg daily, Day 7 to Day 14, cuff pressure): significant
mean blood pressure responses to acetyl choline ([5]; treated vs untreated mice): significant differences
differences in reduction of systolic blood pressure ([5]; treated vs untreated mice, 20 mg/kg daily): about 8 mmHg
endothelial function (difference in tail cuff pressure after acetylcholine) [6]: improves endothelial function
intracellular BH4 levels (intracellular BH4): more effectively than exogenous BH4
safety profile [7]: favorable

NCCCC[C@H](N[C@@H](CCc1ccccc1)C(=O)O)C(=O)N1CCC[C@H]1C(=O)O [Lisinopril]
neutrophil migration, dosing effects of medication (HRGECs / neutrophils [1]): No difference
neutrophil adhesion, dosing effects of medication (HRGECs / neutrophils [2]): No difference

C[C@]12C=CC(=O)C=C1CC[C@@H]1[C@@H]2C(=O)C[C@@]2(C)[C@H]1CC[C@]2(O)C(=O)CO [Prednisone, prednisone]
neutrophil migration, dosing effects of medication (HRGECs / neutrophils [1]): No difference
neutrophil adhesion, dosing effects of medication (HRGECs / neutrophils [2]): No difference

c1ccc(Cn2nnc3c(Sc4nc5ccccc5o4)ncnc32)cc1 [VAS2870, reference compound]
NO production (DAF-FM fluorescence) [4]: not effective

CCN(CCO)CCCC(C)Nc1ccnc2cc(Cl)ccc12 (stereo not shown) [hydroxychloroquine]
neutrophil migration, dosing effects of medication (HRGECs / neutrophils [1]): No difference
neutrophil adhesion, dosing effects of medication (HRGECs / neutrophils [2]): No difference
IC50 (TLR 7/9): ~4 µM
